Literature values, collected in US20200230082A1, “TOPICAL ACETAMINOPHEN FORMULATIONS FOR ITCH RELIEF” (UNIVERSITY OF MIAMI, priority 2017, published 2020).
Like-named read-outs stand apart in the source and are kept apart here.

Solubility % (solvent: Ethanol): 37^1%
Solubility % (solvent: PEG-400): 18.9^3%
Solubility % (solvent: Propylene Glycol): 9.8^2%
Solubility % (solvent: Water): 1.7^1%
Compound: CC(=O)Nc1ccc(O)cc1 [acetaminophen]
